In one data set the test system is B16-CD73+ tumor cells. Put plainly: anti-tumor activity in syngeneic mice injected intravenously with B16-CD73+ tumor cells (lung nodules). To be noted: for number of lung nodules: oral, 30 mg/Kg/day, similar conditions, University of Barcelona, FIGS. 1b and 1c. The class given is in vivo, C57Bl/6 mice. The method, then: (§1) (mean lung nodules of 9-10 mice/group±standard errors are shown; *: P<0.05 by Student T test).
(§2) FIGS. 1b and 1c show the anti-tumoral activity of orally administered Compound A and Compound B in two syngeneic mouse models of cancer. (mean lung nodules of 9-10 mice/group±standard errors are shown; *: P<0.05 by Student T test).
(§3) All experiments were carried out in accordance with guidelines set out by the Animal Experimental Ethics Committee. […] Vehicle consisted of 0.1% Tween 80 and 0.5% sodium carboxymethylcellulose (NaCMC) in water. Mice were euthanized at day 15, lungs harvested and tumor nodules counted under dissecting microscope. […] Freshly resected NSCLC tumors were obtained through the Tissue Core at Moffitt Cancer Center. The tumor was disaggregated for 2 hours in a Collagenase/DNase solution in the presence of complete protease inhibitors (Roche). Total cells (Tu) were counted. […] IL-2 has been used in some experiments in order to stimulate the IFN-γ production in these very resistant tumor cells. […] IFNg (IFN-γ ELISA R&D Systems) was determinated as a measure of T cell reactivity to autologous tumor cells. […] The compounds A and B were tested using similar experimental conditions, with the exception that the freshly resected NSCLC tumors were obtained from the Hospital Clínico in Barcelona. […] FIG. 8 a-g show the results obtained in each case. […] This is considered a clear signal of immune stimulation of the infiltrating lymphocytes presents in the tumors. […] 4. […] A compound of Formula I will be administered orally to the patient twice daily, fasting, at a dose of 80 mg, 160 mg, 320 mg or 640 mg throughout a cycle of 28 days. […] Response and progression will be evaluated in this study using the new international criteria proposed by the revised Response Evaluation Criteria in Solid Tumors (RECIST) guideline (version 1.1; Eisenhauer E A, Therasse P, Bogaerts J, et al. New response evaluation criteria in solid tumours: revised RECIST guideline (version 1.1). Eur J Cancer 2009; 45:228-47). […]

The next data set concerns MCA205 tumor cells. The data set can be described thus: anti-tumor activity in syngeneic mice injected intravenously with MCA205 tumor cells (lung nodules). In kind it is in vivo, C57Bl/6 mice. To be noted: for number of lung nodules: oral, 30 mg/Kg/day, similar conditions, University of Barcelona, FIGS. 1b and 1c. The method, then:
as §1, §2, §3

Data set [1] deals with freshly resected NSCLC tumors (human lung tumour explants). Put plainly: ex vivo human lung tumour explants: IFNg secretion (IFN-γ ELISA) as measure of T cell (TIL) reactivity. In kind it is cell-based. To be noted: for secretion of IFNg of tumor cells: NSCLC tumors from Hospital Clínico in Barcelona; for interferon gamma secretion from lung tumor cells stimulated with IL-2: FIG. 3. The method, then:
(§4) All experiments were carried out in accordance with guidelines set out by the Animal Experimental Ethics Committee. […] Vehicle consisted of 0.1% Tween 80 and 0.5% sodium carboxymethylcellulose (NaCMC) in water. Mice were euthanized at day 15, lungs harvested and tumor nodules counted under dissecting microscope. […] Freshly resected NSCLC tumors were obtained through the Tissue Core at Moffitt Cancer Center. The tumor was disaggregated for 2 hours in a Collagenase/DNase solution in the presence of complete protease inhibitors (Roche). Total cells (Tu) were counted. […] IL-2 has been used in some experiments in order to stimulate the IFN-γ production in these very resistant tumor cells. […] IFNg (IFN-γ ELISA R&D Systems) was determinated as a measure of T cell reactivity to autologous tumor cells. […] The compounds A and B were tested using similar experimental conditions, with the exception that the freshly resected NSCLC tumors were obtained from the Hospital Clínico in Barcelona. […] FIG. 8 a-g show the results obtained in each case. […] This is considered a clear signal of immune stimulation of the infiltrating lymphocytes presents in the tumors. […] 4. […] A compound of Formula I will be administered orally to the patient twice daily, fasting, at a dose of 80 mg, 160 mg, 320 mg or 640 mg throughout a cycle of 28 days. An anti-PD-1 antibody will be administered at a dose of about 300 mg or about 400 mg once every 3 week or once every 4 weeks. The anti-PD-1 antibody will be administered via IV infusion over a period of 30 minutes to 2 h. The compound of Formula I will be administered fasting immediately prior to the infusion with the anti-PD-1 antibody. In order to determine efficacy, baseline evaluations will be performed as closely as possible to the beginning of treatment and never more than 4 weeks before the beginning of the treatment. In addition to a baseline scan, confirmatory scans will be obtained 4-6 weeks following initial documentation of objective response. Response and progression will be evaluated in this study using the new international criteria proposed by the revised Response Evaluation Criteria in Solid Tumors (RECIST) guideline (version 1.1; Eisenhauer E A, Therasse P, Bogaerts J, et al. New response evaluation criteria in solid tumours: revised RECIST guideline (version 1.1). Eur J Cancer 2009; 45:228-47). Changes in the largest diameter (unidimensional measurement) of the tumor lesions and the shortest diameter in the case of malignant lymph nodes are used (Schwartz L H, Bogaerts J, Ford R, et al. Evaluation of lymph nodes with RECIST 1.1. Eur J Cancer 2009; 45:261-7). All The same method of assessment and the same technique will be used to characterize each identified and reported lesion at baseline and during follow-up. Imaging-based evaluation such as Chest x-ray, conventional CT and MRI will be used.

In data set [2] the test system is resistant human lung tumor explants. Put plainly: Bioplex assay of interleukins secretion in supernatants of resistant human lung tumor explants. The class given is cell-based. The method, then:
as §4

A short description of data set [3]: toxicity profile in different animal models. The class given is in vivo. To be noted: in comparison with classical chemotherapy and other adenosine receptor antagonists.
Setting [4] is: compound alone, 1 μM, FIGS. 4-7 (IL-2 stimulated).
[5] abbreviates: in combination with an anti-PD-L1 or an anti-PD-1 antibody, FIGS. 4-7.
Setting [6] is: compound alone, supernatants from ex vivo experiments, FIG. 8.

For the molecule `Nc1nc(-n2cccn2)nc(-n2cccn2)c1Cl` [Compound A, 5-chloro-2,6-di-(1H-pyrazol-1-yl)pyrimidin-4-amine, reference compound], the “number of lung nodules” value with B16-CD73+ tumor cells and with MCA205 tumor cells was “no significant reduction” each time. For the same molecule, the “secretion of IFNg of tumor cells” value in data set [1] (setting [4]) and in data set [1] (setting [5]) was “not able to increase the secretion of IFNg” throughout.

For `N#Cc1c(N)nc(-n2cccn2)nc1-n1cccn1` [Compound B, 4-amino-2,6-di-(1H-pyrazol-1-yl)pyrimidine-5-carbonitrile, reference compound], the “number of lung nodules” value in the data set on B16-CD73+ tumor cells and with MCA205 tumor cells was “no significant reduction” in each case. Further, the “secretion of IFNg of tumor cells” value in data set [1] (setting [4]) and in data set [1] (setting [5]) was “not able to increase the secretion of IFNg” in each case.

Regarding `Nc1nc(-n2cccn2)nc(-n2cccn2)c1Br` [Compound of formula (I), 5-bromo-2,6-di-(1H-pyrazol-1-yl)pyrimidin-4-amine], in data set [2] (setting [6]), the “secretion of IL5 (Interleukin 5) to the medium” value was “significantly increase the secretion”, the “secretion of IL10 (Interleukin 10) to the medium” value is listed as “significantly increase the secretion”, the “secretion of IL13 (Interleukin 13) to the medium” value is “significantly increase the secretion” and the “secretion of IL17 (Interleukin 17) to the medium” value is “significantly increase the secretion”. Besides, in data set [2] (setting [6]), the “secretion of ILib (Interleukin 1b) to the medium” value is listed as “significantly increase the secretion”, the “secretion of MIP1b to the medium” value is on record as “significantly increase the secretion” and the “secretion of tumor necrosis factor α (TNFα) to the medium” value was “significantly increase the secretion”. Further, the “secretion of different interleukins” value in data set [2] (in combination with either an anti PDL-1 or an anti-PD-1 antibody) is given as “increased the secretion of different interleukins of these tumors synergistically”. Also, the “tumor burden (lung nodule and lung metastasis)” value in the data set on B16-CD73+ tumor cells (3×10^5 B16-CD73+ cells i.v., 15 mg/kg/day oral gavage daily for 15 days vs vehicle, nodules counted day 15, FIG. 1a) is “significantly reduced tumor burden”. Further, the toxicity profile entry in data set [3] is listed as “low toxicity profile”. In addition, the “tumor burden (lung nodule and lung metastasis)” value in the data set on MCA205 tumor cells (2×10^5 MCA205 cells i.v., 30 mg/kg/day oral gavage daily for 7 days vs vehicle, nodules counted day 15, FIG. 1a) is listed as “significantly reduced tumor burden”. Moreover, in data set [1] (1 μM in combination with anti-PD-L1 antibody, other tumors), the “TIL function (IFNg concentration)” value is on record as “synergistically capable of restoring TIL function”. Besides, the “TIL function (IFNg concentration)” value in data set [1] (1 μM in combination with anti-PD-L1 antibody, some of the samples) is given as “improved TIL function (as determined by measuring IFNg concentration) in additive way”. The “interferon gamma secretion from lung tumor cells stimulated with IL-2” value in data set [1] (compound alone) is given as “significantly increased”. For the same molecule, the “interferon gamma secretion from lung tumor cells stimulated with IL-2” value in data set [1] (in combination with anti-PD-1 antibody, compared with compound alone) is given as “more pronounced”. Further, in data set [1] (in combination with anti-PD-L1 antibody, FIG. 2), the “interferon gamma secretion of non-stimulated lung tumor cells” value is on record as “significantly increase”. Moreover, the “TIL function (IFNg concentration)” value in data set [1] (single agent, other tumors, compound 1 μM, antibody 10 mg/ml) is “had no effect on TIL function”. The “TIL reactivity (IFNg concentration)” value in data set [1] (single agent, some of the samples, 200,000 cells/well, 3 days, compound 1 μM, antibody 10 mg/ml) is recorded as “partially restored TIL reactivity”.

Source of the values: patent US10561653B2 (NOVARTIS AG, priority 2015, dated 2020).
